This passage reports Ki results from ChEMBL document CHEMBL2062374, “Chemoenzymatic synthesis and evaluation of 3-azabicyclo[3.2.0]heptane derivatives as dopaminergic ligands” (Eur J Med Chem, 2012).

What all share (assay type): cell-based
One test concerns the target D(1A) dopamine receptor (Homo sapiens, UniProt P21728). In words: Displacement of [3H]SCH23390 from human D1 receptor expressed in HEK293 cells. (Displacement assays read how much labelled ligand stays bound in the presence of the test substance.)
The target of another test is D(2) dopamine receptor (Homo sapiens, UniProt P14416). The experiment in a line: Displacement of [3H]raclopride from human D2L receptor expressed in HEK293 cells.
Chain of D(2) dopamine receptor (P14416 whole entry): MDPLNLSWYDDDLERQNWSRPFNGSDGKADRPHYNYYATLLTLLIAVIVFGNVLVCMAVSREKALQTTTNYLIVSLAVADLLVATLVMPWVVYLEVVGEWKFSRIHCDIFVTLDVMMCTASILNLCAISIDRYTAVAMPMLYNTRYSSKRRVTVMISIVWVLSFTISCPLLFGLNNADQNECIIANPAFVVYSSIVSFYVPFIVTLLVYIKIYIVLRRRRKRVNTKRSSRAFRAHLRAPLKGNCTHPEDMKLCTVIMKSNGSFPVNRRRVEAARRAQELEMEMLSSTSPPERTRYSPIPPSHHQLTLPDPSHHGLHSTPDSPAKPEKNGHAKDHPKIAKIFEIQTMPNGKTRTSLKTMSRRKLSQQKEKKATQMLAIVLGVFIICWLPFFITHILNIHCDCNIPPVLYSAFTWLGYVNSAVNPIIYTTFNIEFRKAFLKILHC
The next test has as its target D(3) dopamine receptor (Homo sapiens, UniProt P35462). The experiment in a line: Displacement of [3H]raclopride from human D3 receptor expressed in HEK293 cells.

Chain of D(3) dopamine receptor (P35462 whole entry): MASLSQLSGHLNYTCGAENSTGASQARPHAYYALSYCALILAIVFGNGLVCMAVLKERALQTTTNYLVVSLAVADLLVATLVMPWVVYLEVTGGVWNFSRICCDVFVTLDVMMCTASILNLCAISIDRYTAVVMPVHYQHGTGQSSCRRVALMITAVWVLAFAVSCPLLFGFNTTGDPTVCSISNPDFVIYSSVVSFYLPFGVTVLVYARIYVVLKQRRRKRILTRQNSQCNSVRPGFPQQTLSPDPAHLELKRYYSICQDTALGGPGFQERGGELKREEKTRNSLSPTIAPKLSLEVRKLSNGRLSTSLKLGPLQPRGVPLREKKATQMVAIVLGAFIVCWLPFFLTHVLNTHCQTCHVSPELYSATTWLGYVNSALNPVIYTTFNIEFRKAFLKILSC
Chain of D(1A) dopamine receptor (P21728 whole entry): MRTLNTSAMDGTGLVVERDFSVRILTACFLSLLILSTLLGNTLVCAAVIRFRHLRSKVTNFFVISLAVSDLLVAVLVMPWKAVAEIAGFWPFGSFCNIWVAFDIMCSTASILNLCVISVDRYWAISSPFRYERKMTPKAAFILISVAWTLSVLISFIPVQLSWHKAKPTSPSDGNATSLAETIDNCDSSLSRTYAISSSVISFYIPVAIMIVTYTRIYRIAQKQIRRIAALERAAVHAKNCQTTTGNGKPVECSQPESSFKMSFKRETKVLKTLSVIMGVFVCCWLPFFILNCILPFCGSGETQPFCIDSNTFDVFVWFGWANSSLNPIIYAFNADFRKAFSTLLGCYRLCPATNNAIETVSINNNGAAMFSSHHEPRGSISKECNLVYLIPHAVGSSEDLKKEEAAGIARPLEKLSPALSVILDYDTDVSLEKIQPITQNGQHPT

Consider `CCN(CC)[C@@H]1[C@@H](CO)[C@H]2CN(Cc3ccccc3)[C@H](c3ccccc3)[C@H]21`, for which the results for the Ki on D(1A) dopamine receptor, on D(2) dopamine receptor and on D(3) dopamine receptor were 42 µM, 12 µM and 13.2 µM, respectively.
For `CCN(CC)[C@H]1[C@H](CO)[C@@H]2CN(Cc3ccccc3)[C@@H](c3ccccc3)[C@@H]21`, in that order: 22 µM, 1.7 µM and 1.3 µM.
For `OC[C@H]1[C@H]2CN(Cc3ccccc3)[C@H](c3ccccc3)[C@H]2[C@@H]1N1CCCC1`, in that order: 40.8 µM, 7.4 µM and 11 µM.
Regarding `OC[C@@H]1[C@@H]2CN(Cc3ccccc3)[C@@H](c3ccccc3)[C@@H]2[C@H]1N1CCCC1`, the Ki – broadly, the equilibrium dissociation constant of an inhibitor or competing ligand from its target – at D(1A) dopamine receptor was found to be 22 µM; on D(2) dopamine receptor, 0.25 µM; on D(3) dopamine receptor it was 0.28 µM.
The corresponding values for `CCN(CC)[C@@H]1[C@@H](CO)[C@H]2CN(Cc3ccccc3)[C@H](C)[C@H]21` are more than 100 µM, 38 µM and 21 µM.
The corresponding values for `CCN(CC)[C@H]1[C@H](CO)[C@@H]2CN(Cc3ccccc3)[C@@H](C)[C@@H]21` are more than 100 µM, 3.9 µM and 1.77 µM.
The corresponding values for `C[C@@H]1[C@@H]2[C@H](CN1Cc1ccccc1)[C@H](CO)[C@H]2N1CCCC1` are more than 100 µM, 66 µM and 36 µM.
Turning to `C[C@H]1[C@H]2[C@@H](CN1Cc1ccccc1)[C@@H](CO)[C@@H]2N1CCCC1`, the inhibitory constant (Ki) is more than 100 µM on D(1A) dopamine receptor, 16 µM on D(2) dopamine receptor and 11 µM at D(3) dopamine receptor.
For `CCN(CC)[C@@H]1[C@@H](CO)[C@H]2CN(Cc3ccccc3)[C@H](c3ccc(Br)cc3)[C@H]21`, in that order: 7 µM, 5 µM and 7.93 µM.
Regarding `CCN(CC)[C@H]1[C@H](CO)[C@@H]2CN(Cc3ccccc3)[C@@H](c3ccc(Br)cc3)[C@@H]21`, the Ki on D(1A) dopamine receptor is 8 µM; on D(2) dopamine receptor it was 2 µM; at D(3) dopamine receptor, 2.14 µM.
Turning to `CCN(CC)[C@@H]1[C@@H](CO)[C@H]2CN(Cc3ccccc3)[C@H](c3ccccn3)[C@H]21`, the Ki was more than 100 µM at D(1A) dopamine receptor, 42 µM at D(2) dopamine receptor and 36 µM on D(3) dopamine receptor.
The corresponding values for `CCN(CC)[C@H]1[C@H](CO)[C@@H]2CN(Cc3ccccc3)[C@@H](c3ccccn3)[C@@H]21` are more than 100 µM, 12 µM and 8.8 µM.
For `OC[C@H]1[C@H]2CN(Cc3ccccc3)[C@H](c3ccccc3)[C@H]2[C@@H]1N1CCCCC1`, in that order: 44 µM, 7 µM and 5.3 µM.
Take `OC[C@@H]1[C@@H]2CN(Cc3ccccc3)[C@@H](c3ccccc3)[C@@H]2[C@H]1N1CCCCC1`: the inhibition constant Ki at D(1A) dopamine receptor stood at 49 µM; on D(2) dopamine receptor it was 2 µM; on D(3) dopamine receptor, 1.5 µM.
